What all share (assay type): cell-based
In assay [1] the test system is human mesenchymal stem cells. As to the kind of experiment: Introduction of GFP mRNA by lipofection, yield of GFP-positive cells. The following applies: calcitriol 1 μM; GFP mRNA containing pseudouridine instead of uridine, 10 pg/cell. The protocol: (§1) Human mesenchymal stem cells were seeded in a 6-well plate to be about 10,000 cells/cm^2. Human myoblasts were seeded in another 6-well plate to be about 20,000 cells/cm^2. As a culture solution, a basal medium for each cell supplemented with 0.1, 1, or 10 μM of JSH-23 was used. As a control, a basal medium for each cell supplemented with 0.1% (v/v) DMSO instead of JSH-23 was used as a culture solution.
(§2) A lipofection solution was prepared by adding Lipofectamine RNAiMAX and fluorescent protein GFP mRNA to OptiMEM. As the GFP mRNA, that containing uridine or that containing pseudouridine instead of uridine was used. In addition, for those containing pseudouridine, a basal medium for each cell supplemented with 1 μM of JSH-23 was used, and as a control, a basal medium for each cell supplemented with 0.1% (v/v) DMSO instead of JSH-23 was used as a culture solution. It was prepared so that the amount of mRNA was 10 pg/cell for human mesenchymal stem cells and 5 pg/cell for human myoblasts. The prepared lipofection solution was mixed well according to the manufacturer's recommended protocol and allowed to stand at room temperature for about 15 minutes.
(§3) Next, each lipofection solution was added to the plate seeded with human mesenchymal stem cells or human myoblasts, and cultured in a CO2 incubator at 37° C. for about 1 day (18 hours) (human mesenchymal stem cells) or for 2 days (42 hours) (human myoblasts). After culturing, all the culture solution comprising the lipofection solution was removed and replaced with a new culture solution having the same composition as before the addition of the lipofection solution.
(§4) After another 6 hours, the above lipofection solution was newly prepared, added again to the plate seeded with human mesenchymal stem cells or human myoblasts, and cultured in a CO2 incubator at 37° C. for about 1 day (18 hours) (mesenchymal stem cells) or about 2 days (42 hours) (human myoblasts). These steps were repeated so that the introduction of genes was performed a total of 4 times.
(§5) Twenty-four hours after the final introduction of genes, the cells were detached with a cell detachment solution, centrifuged at 600×g for 5 minutes using a centrifuge, to collect the cells. The collected cells were counted using a hemocytometer. Furthermore, the GFP-positive percentage of the collected cells was measured using a flow cytometer. The yield of the number of GFP-positive cells was calculated from the number of cells counted and the GFP-positive rate.
(§6) Human mesenchymal stem cells were seeded in a 6-well plate to be about 10,000 cells/cm^2. Human myoblasts were seeded in another 6-well plate to be about 20,000 cells/cm^2. As a culture solution, a basal medium for each cell supplemented with 1 μM of calcitriol was used. As a control, a basal medium for each cell supplemented with 0.1% (v/v) DMSO instead of calcitriol was used as a culture solution.
(§7) A lipofection solution was prepared by adding Lipofectamine RNAiMAX and fluorescent protein GFP mRNA to OptiMEM. As the GFP mRNA, that containing uridine, or that containing pseudouridine instead of uridine was used. It was prepared so that the amount of mRNA was 10 pg/cell for human mesenchymal stem cells and 5 pg/cell for human myoblasts. The prepared lipofection solution was mixed well according to the manufacturer's recommended protocol and allowed to stand at room temperature for about 15 minutes.

For assay [2], the system named is human myoblasts. Described as above. The following applies: calcitriol 1 μM. The method, then: as §1, §2, §3, §4, §5, §6, §7
Assay [3] relates to human myoblasts. Briefly: Introduction of GFP viral vector (polybrene method), yield of GFP-positive cells. The following applies: calcitriol 1 μM; viral vector MOI 0.1, 5 or 10, polybrene 0, 5 or 10 μg/mL; depending on the transduction conditions. The protocol:
Human mesenchymal stem cells were seeded in a 6-well plate to be about 2,000 cells/cm^2. Human myoblasts were seeded in another 6-well plate to be about 2,000 cells/cm^2. As a culture solution, a basal medium for each cell supplemented with JSH-23 was used. JSH-23 was added at 1 μM to the culture solution used for human mesenchymal stem cells, and at 0.1 μM to the culture solution used for human myoblasts. As a control, a basal medium, i.e., αMEM (+10% serum) for human mesenchymal stem cells and MCDB131 (+10% serum) for human myoblasts, to which 0.1% (v/v) DMSO instead of JSH-23 was added was used as a culture solution.
A mixed solution was prepared by mixing GFP viral vector and a polybrene solution. […]
Next, the above mixed solution was added to the plate seeded with human mesenchymal stem cells or human myoblasts, and cultured in a CO2 incubator at 37° C. for 24 hours.
Four days after the addition of the virus-free culture solution, the cells were detached with a cell detachment solution and centrifuged at 600×g for 5 minutes using a centrifuge, to collect the cells. The collected cells were counted using a hemocytometer. Furthermore, the GFP-positive percentage of the collected cells was measured using a flow cytometer. The yield of the number of GFP-positive cells was calculated from the number of cells counted and the GFP-positive percentage. […]

In assay [4] the test system is human mesenchymal stem cells. As to the kind of experiment: Introduction of GFP mRNA with PEIMAX and other NFκB nuclear translocation inhibitors (Example 13), cell yield. Particulars: GFP mRNA 10 pg/cell, PEIMAX. The protocol:
Improvement in the yield of transgenic cells was investigated when using the NFκB nuclear translocation inhibitor of the present invention other than JSH-23 and calcitriol. Introduction of genes was performed using vitamin B6, vitamin C, vitamin E, and rolipram as an NFκB nuclear translocation inhibitor other than JSH-23 and calcitriol. The specific procedure is as follows.
Human mesenchymal stem cells were seeded in a 6-well plate to be about 10,000 cells/cm^2. As a culture solution, a basal medium supplemented with vitamin B6 and vitamin E at 2 μM and 10 μM, vitamin C at 20 μM and 100 μM, and rolipram at 10 μM was used. As a control, the basal medium for each cell supplemented with 0.1% (v/v) DMSO instead of each compound was used as a culture solution.
A lipofection solution was prepared by adding PEIMAX and fluorescent protein GFP mRNA to OptiMEM. It was prepared so that the amount of mRNA was 10 pg/cell. […]
Twenty-four hours after the final introduction of genes, the cells were detached with a cell detachment solution, centrifuged at 600×g for 5 minutes using a centrifuge, to collect the cells. In addition, the collected cells were counted using a hemocytometer. Furthermore, the GFP-positive percentage of the collected cells was measured using a flow cytometer. The yield of the number of GFP-positive cells was calculated from the number of cells counted and the GFP-positive percentage.

Each structure is given as a SMILES string.

In the case of `C=C1/C(=C\C=C2/CCC[C@]3(C)[C@@H]([C@H](C)CCCC(C)(C)O)CC[C@@H]23)C[C@@H](O)C[C@@H]1O` [calcitriol], the “yield of GFP-positive cells compared to the control (control set to 1)” value is reported as not below 2.7 times in assay [1]; not below 4 times in the assay on human myoblasts [2] (GFP mRNA containing pseudouridine instead of uridine, 5 pg/cell); not below 5 times in the assay on human myoblasts [2] (GFP mRNA containing uridine, 5 pg/cell, second statement of b89); not below 7 times in the assay on human myoblasts [2] (GFP mRNA containing uridine, first statement of b89, printed as human myoblasts). Also, the “increase of the number of GFP-positive cells by adding calcitriol” value with human myoblasts [3] is on record as “about 4.5 times”.

Regarding `COc1ccc(C2CNC(=O)C2)cc1OC1CCCC1` (stereo not shown) [rolipram], the “number of viable cells after introduction of genes relative to control (set to 1)” value in assay [4] (compound at 10 μM) is given as “about 1.3 times”.

`Cc1ncc(CO)c(CO)c1O.Cl` [vitamin B6]: the “number of viable cells after introduction of genes relative to control (set to 1)” value in assay [4] (compound at 2 μM and 10 μM) was “about 1.2 times”.

These data come from patent publication US20250327032A1, “AGENT FOR AVOIDING IMMUNE RESPONSE OF TRANSGENIC CELLS” (HYPERION DRUG DISCOVERY CO., LTD., priority 2021, published 2025).
